AC50 and IC50 data for three molecules are collected here from ChEMBL document CHEMBL1201862, “PubChem BioAssay data set” (2004).

Assay [1] is described as follows: COV434 cell viability loss – plate reader, dry powder, SA7, cytotoxicity control for PAX8 inhibitor project, dose response (AID 743145). It is filed as functional, cell-based.
Assay [2] can be described thus: reduction of Shn3 3'UTR-driven luciferase in osteoblasts – cell-based, Clone20 osteoblasts, firefly luciferase, cherry-picked, dose response (AID 624132).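 Also: firefly luciferase luminescence from reporter carrying the Shn3 3'UTR in osteoblasts.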 It is filed as functional.
Assay [3] in a line: OV-90 cell viability loss – plate reader, dry powder, SA8, PAX8 inhibitor project, dose response (AID 743149). The class given is functional, cell-based.
The next assay concerns HEK293. Nature of the assay: SAR Analysis of small molecule inhibitors of T-cell specific antigen receptor-induced NF-kB activation in a HEK-293T cell line using a luminescence assay - Set 2. [Related pubchem assays (depositor defined):AID435003, AID435012, AID489026]. It is filed as functional, cell-based. Conditions: Homo sapiens.
For assay [4], the target named is Intestinal-type alkaline phosphatase (Mus musculus, UniProt P24822). Nature of the assay: PubChem AID 488874. The class given is functional.
Another assay can be described thus: cells. The class given is functional.

Calls of active or inactive are those of the source.

Sequence of Intestinal-type alkaline phosphatase (P24822 whole entry): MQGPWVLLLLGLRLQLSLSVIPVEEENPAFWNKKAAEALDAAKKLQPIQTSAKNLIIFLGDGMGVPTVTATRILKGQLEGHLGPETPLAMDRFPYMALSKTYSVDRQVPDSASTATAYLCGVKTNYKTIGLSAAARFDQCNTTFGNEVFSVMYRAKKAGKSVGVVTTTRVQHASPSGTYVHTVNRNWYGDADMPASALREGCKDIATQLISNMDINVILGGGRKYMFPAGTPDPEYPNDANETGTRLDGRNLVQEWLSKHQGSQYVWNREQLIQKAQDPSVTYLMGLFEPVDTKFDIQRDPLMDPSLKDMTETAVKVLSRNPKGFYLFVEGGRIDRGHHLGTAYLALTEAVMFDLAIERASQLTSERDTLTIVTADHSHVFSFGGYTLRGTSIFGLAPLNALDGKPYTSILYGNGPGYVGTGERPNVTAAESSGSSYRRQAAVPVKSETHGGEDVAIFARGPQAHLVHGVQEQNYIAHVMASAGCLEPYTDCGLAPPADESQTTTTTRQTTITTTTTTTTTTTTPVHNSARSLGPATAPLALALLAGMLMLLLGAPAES

Turning to `CCCCC(=O)NC(c1ccccc1)c1ccc2cccnc2c1O` (stereo unspecified), the figures for the AC50 in assay [1], in assay [2] and in assay [3] were 4.16 µM (active), 2.35 µM (active) and 3.88 µM (active), respectively. For the same molecule, the IC50 with HEK293 was 8.62 µM (active).
For the molecule `O=C(/C=C/c1cccs1)NC(=S)NNC(=O)c1ccccc1O`, the concentration for half-maximal inhibition (IC50) in assay [4] is 70.4 µM (active).
Consider `CC(=O)N(Cc1ccc(F)cc1)C1=C(NCCc2ccccc2)C(=O)c2ccccc2C1=O`, for which, in the assay “cells”, the IC50 was 3.23 µM (active).

For orientation: AC50 means the midpoint of the concentration-response curve, whichever way the signal moves. One may read the IC50 as the concentration that gives 50% inhibition.
